Experimental data from ChEMBL document CHEMBL1201862, “PubChem BioAssay data set” (2004).
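Growth conditions: 96-well plates. Treatment: test compound, 48 hours, 5 concentrations. Analysis: linear interpolation between bracketing concentrations; unreached endpoints set to highest concentration. The concentration for 50% growth inhibition is given as GI50.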 Active and inactive are the calls of the source. Cut-off read from the data, not from the text of the source: active = GI50 up to about 1.1 µM and inactive = higher.

How the values were obtained:
Test in all cases: NCI-60 cell line screen, 48 h
NCI-H522 = test system: NCI-H522
LOX IMVI = test system: LOX IMVI
SF-295 = test system: SF-295
SNB-75 = test system: SNB-75
OVCAR-5 = test system: OVCAR-5
HOP-92 = test system: HOP-92
HCT-15 = test system: HCT-15
SW-620 = test system: SW-620
T47D = test system: T47D
UO-31 = test system: UO-31
IGROV-1 = test system: IGROV-1
HCC 2998 = test system: HCC 2998
HT-29 = test system: HT-29
EKVX = test system: EKVX
KM12 = test system: KM12
SR = test system: SR
A549 = test system: A549
HL-60 = test system: HL-60
SF-268 = test system: SF-268
SK-MEL-28 = test system: SK-MEL-28

Structure (SMILES)	GI50 (NCI-H522)	GI50 (LOX IMVI)	GI50 (SF-295)	GI50 (SNB-75)	GI50 (OVCAR-5)	GI50 (HOP-92)	GI50 (HCT-15) [µM]	GI50 (SW-620)	GI50 (T47D)	GI50 (UO-31)	GI50 (IGROV-1)	GI50 (HCC 2998)	GI50 (HT-29)	GI50 (EKVX)	GI50 (KM12)	GI50 (SR)	GI50 (A549)	GI50 (HL-60)	GI50 (SF-268)	GI50 (SK-MEL-28)
O=C(O)CCCSc1ccccc1	> 100 µM (inactive)	> 100 µM (inactive)	> 100 µM (inactive)	> 100 µM (inactive)	> 100 µM (inactive)	> 100 µM (inactive)	> 100	> 100 µM (inactive)	> 100 µM (inactive)	> 100 µM (inactive)	> 100 µM (inactive)	> 100 µM (inactive)	> 100 µM (inactive)	> 100 µM (inactive)	> 100 µM (inactive)	> 100 µM (inactive)	> 100 µM (inactive)	> 100 µM (inactive)	> 100 µM (inactive)	> 100 µM (inactive)
COC1=CC(=O)c2c(ccc3ncnc(N)c23)C1=O	2.42 µM (inactive)	1.03 µM (active)	3.62 µM (inactive)	3.57 µM (inactive)	2 µM (inactive)	1.63 µM (inactive)	1.99	1.93 µM (inactive)	1.11 µM (active)	2.31 µM (inactive)	1.73 µM (inactive)	6.03 µM (inactive)	2.1 µM (inactive)	2.04 µM (inactive)	4.41 µM (inactive)	0.164 µM (active)	4.05 µM (inactive)	0.57 µM (active)	2.47 µM (inactive)	2.36 µM (inactive)
COC(=O)c1ccc2c(O)c(O)ccc2c1	15.2 µM (inactive)	2.87 µM (inactive)	6.98 µM (inactive)	12.8 µM (inactive)	19.2 µM (inactive)	18.4 µM (inactive)	13.6	12.1 µM (inactive)	19.5 µM (inactive)	20.7 µM (inactive)	17.2 µM (inactive)	15.1 µM (inactive)	17.1 µM (inactive)	22.8 µM (inactive)	17.1 µM (inactive)	2.6 µM (inactive)	22.2 µM (inactive)	2.02 µM (inactive)	19.4 µM (inactive)	16.3 µM (inactive)
CC(C)CCC1(O)O[C@H]2C[C@H]3[C@@H]4CCC5CC(=O)C=C[C@]5(C)[C@H]4CC[C@]3(C)[C@H]2[C@@H]1C (stereo not given in full)	1.8 µM (inactive)	12.7 µM (inactive)	11.7 µM (inactive)	14.3 µM (inactive)	13.1 µM (inactive)	3.58 µM (inactive)	11.2	12.1 µM (inactive)	12 µM (inactive)	16.6 µM (inactive)	15.6 µM (inactive)	0.148 µM (active)	7.64 µM (inactive)	16.7 µM (inactive)	11.8 µM (inactive)	8.36 µM (inactive)	14.7 µM (inactive)	4.45 µM (inactive)	13.4 µM (inactive)	11.5 µM (inactive)
C#CC(O)/C=C/CCCCCCC#CC/C=C\CC#CCCCCCCCCC(O)C#C (stereo not given)	0.174 µM (active)	< 0.01 µM (active)	15.1 µM (inactive)	9.1 µM (inactive)	12.8 µM (inactive)	1.8 µM (inactive)	3.27	3.5 µM (inactive)	10.5 µM (inactive)	0.667 µM (active)	0.407 µM (active)	3.63 µM (inactive)	2.74 µM (inactive)	3.51 µM (inactive)	3.05 µM (inactive)	2.37 µM (inactive)	8.43 µM (inactive)	1.74 µM (inactive)	9.59 µM (inactive)	3.42 µM (inactive)
CC(=O)N(C)c1cc(NCc2ccccc2)ccc1OCc1ccccc1	17.9 µM (inactive)	20 µM (inactive)	15.4 µM (inactive)	22.2 µM (inactive)	19.3 µM (inactive)	12.7 µM (inactive)	19.1	24.9 µM (inactive)	36.6 µM (inactive)	14.8 µM (inactive)	16.4 µM (inactive)	18.8 µM (inactive)	20.6 µM (inactive)	18.5 µM (inactive)	21.3 µM (inactive)	15.5 µM (inactive)	18.3 µM (inactive)	26 µM (inactive)	14.7 µM (inactive)	18.9 µM (inactive)
CC(=O)Nc1ccc(CNc2cc(=O)[nH]c(=O)[nH]2)cc1	> 100 µM (inactive)	> 100 µM (inactive)	> 100 µM (inactive)	> 100 µM (inactive)	> 100 µM (inactive)	> 100 µM (inactive)	> 100	> 100 µM (inactive)	> 100 µM (inactive)	> 100 µM (inactive)	> 100 µM (inactive)	> 100 µM (inactive)	> 100 µM (inactive)	> 100 µM (inactive)	> 100 µM (inactive)	> 100 µM (inactive)	> 100 µM (inactive)	> 100 µM (inactive)	> 100 µM (inactive)	> 100 µM (inactive)
